“Also recorded” adds a separate entry of the source.
B1: HC: central fragment from human APC (codons 1379-2080) N-terminally tagged with GFP, expressed by transfection (protein, UniProt P25054 1379-2080, looked up, fragment)
chain: ETPLMFSRCTSVSSLDSFESRSIASSVQSEPCSGMVSGIISPSDLPDSPGQTMPPSRSKTPPPPPQTAQTKREVPKNKAPTAEKRESGPKQAAVNAAVQRVQVLPDADTLLHFATESTPDGFSCSSSLSALSLDEPFIQKDVELRIMPPVQENDNGNETESEQPKESNENQEKEAEKTIDSEKDLLDDSDDDDIEILEECIISAMPTKSSRKAKKPAQTASKLPPPVARKPSQLPVYKLLPSQNRLQPQKHVSFTPGDDMPRVYCVEGTPINFSTATSLSDLTIESPPNELAAGEGVRGGAQSGEFEKRDTIPTEGRSTDEAQGGKTSSVTIPELDDNKAEEGDILAECINSAMPKGKSHKPFRVKKIMDQVQQASASSSAPNKNQLDGKKKKPTSPVKPIPQNTEYRTRVRKNADSKNNLNAERVFSDNKDSKKQNLKNNSKVFNDKLPNNEDRVRGSFAFDSPHHYTPIEGTPYCFSRNDSLSSLDFDDDDVDLSREKAELRKAKENKESEAKVTSHTELTSNQQSANKTQAIAKQPINRGQPKPILQKQSTFPQSSKDIPDRGAATDEKLQNFAIENTPVCFSHNSSLSSLSDIDQENNNKENEPIKETEPPDSQGEPSKPQASGYAPKSFHVEDTPVCFSRNSSLSSLSIDSEDDLLQECISSAMPKKKKPSRLKGDNEKHSPRNMGGILGEDLTLDL
modifications: N-terminal GFP tag
notes: central fragment from human APC (codons 1379-2080) N-terminally tagged with GFP, expressed by transfection

Columns and labels:
[1] = system: nuclear export receptor CRM1; test: Subcellular distribution of GFP-tagged APC constructs in transfected COS cells with or without LMB; format: cell-based, monkey
Description: All constructs were inserted into pEGFP-C2 (Clontech), producing N-terminally tagged GFP fusions. Each construct (except HC and HCala, see below) also contains a triple hemagglutinin (HA) tag inserted between GFP and APC coding sequence. In coreNES, the following NES-encoding sequences were inserted between the HA tag and the ARDcore (first of a pair human, second Drosophila, bold NES residues were substituted to alanine in coreNESala; in coreNEScon, underlined conserved non-NES residues were substituted by alanine): 203, […], […]; 20R4, […], […]; 20R7, […]. coreNESmin from Drosophila 20R4 contains […] (bold residues substituted by alanine in the mutant version). […] For the complementation assays in SW480 cells, a central fragment from human APC (codons 1379-2080) was N-terminally tagged with GFP (HC, see above). The above described alanine substitutions of 20R-linked NESs were introduced into HC, and into GFP-E-APC, using the Quik-Change Site-Directed Mutagenesis Kit (Stratagene), HCala1 and HCala2 are partial mutants retaining one and two NESs, respectively (see text) All constructs were verified by sequencing.
Monkey COS cells were grown in DMEM medium (supplemented with 10% fetal calf serum), and transfected with FuGENE™ (Morin, P. J. et al. Science 275, 1787-1790 (1997)) Transfection Reagent (Roche). SW480 and HCT116 cells were grown in Leibovitz's L15 medium (with 10% fetal calf serum), and transfected with Lipofectamine (Life Technologies Inc.). 0.4 or […] DNA was used per transfection of COS or SW480 cells (in 35 mm culture wells), respectively. Transfected cells were harvested for analysis after 24-48 hours. For staining, cells were either fixed with chilled methanol for 10 min. at −20° C. or fixed with 4% paraformaldehyde (freshly prepared, in phosphate buffered saline) for 30 min. Cells were then permeabilised with 0.1% Triton X-100 and blocked with bovine serum albumin for 15 min. each, and subsequently incubated at room temperature with primary and secondary antibody for 60 and 30 min, respectively. COS cells were treated with LMB (50 ng/ml)) for 1-2 hours 24 hours after transfection, SW480 cells for 2 hours 48 hours after transfection.
(§1) Qualitative analysis was thus backed up by quantitative evaluation of 10-20 randomly chosen fields in which each individual healthy cell was scored. Ratios of nuclear to cytoplasmic fluorescence levels were determined.

[2] = target: T1, nuclear export receptor CRM1 (Drosophila melanogaster, UniProt Q9TVM2); test: Endogenous E-APC localisation in LMB-treated permeabilised Drosophila embryos; format: cell-based; settings: 80 ng/ml LMB 60 min
T1 construct: 0-6 hours old embryos were permeabilised in octane; from tissue; host or cells: octane-permeabilised Drosophila embryos, 0-6 hours old
Method: Drosophila embryos were fixed and stained as described (Yu, X. et al. Nature Cell Biol 3, 144-151 (1999)). For drug treatments, 0-6 hours old embryos were permeabilised in octane (Lantz, V. A. et al. Mech Dev 85, 111-122 (1999)) and subsequently incubated for 60 min. with 80 ng/ml LMB. Controls were octane-permeabilised and incubated in solvent alone (<1% ethanol).
The following antibodies were used: rabbit anti-E-APC (1:10′000) (Yu, X. et al. Nature Cell Biol 3, 144-151 (1999), rabbit anti-APC (1:700) (Näthke, I. S. et al. J Cell Biol 134, 165-179 (1996)), mouse anti-lamin (1:150), mouse anti-β-catenin (1:500; Transduction Laboratories), Alexa Red and Green (1:500; Molecular Probes). images were collected on an MRC 1024 confocal microscope.

[3] = system: nuclear β-catenin in SW480 cells; test: Complementation assay in transfected SW480 cells, immunofluorescence of APC construct and β-catenin; format: cell-based
Description: All constructs were inserted into pEGFP-C2 (Clontech), producing N-terminally tagged GFP fusions. Each construct (except HC and HCala, see below) also contains a triple hemagglutinin (HA) tag inserted between GFP and APC coding sequence. In coreNES, the following NES-encoding sequences were inserted between the HA tag and the ARDcore (first of a pair human, second Drosophila, bold NES residues were substituted to alanine in coreNESala; in coreNEScon, underlined conserved non-NES residues were substituted by alanine): 203, […], […]; 20R4, […], […]; 20R7, […]. coreNESmin from Drosophila 20R4 contains ISGLSHLTVGSA (bold residues substituted by alanine in the mutant version). We also fused the putative NES from Drosophila pseudoR20 (FIG. 1, arrowhead) to ARDcore, but this NES candidate ([…]) was non-functional. For the complementation assays in SW480 cells, a central fragment from human APC (codons 1379-2080) was N-terminally tagged with GFP (HC, see above). The above described alanine substitutions of 20R-linked NESs were introduced into HC, and into GFP-E-APC, using the Quik-Change Site-Directed Mutagenesis Kit (Stratagene), HCala1 and HCala2 are partial mutants retaining one and two NESs, respectively (see text) All constructs were verified by sequencing.
Monkey COS cells were grown in DMEM medium (supplemented with 10% fetal calf serum), and transfected with FuGENE™ (Morin, P. J. et al. Science 275, 1787-1790 (1997)) Transfection Reagent (Roche). SW480 and HCT116 cells were grown in Leibovitz's L15 medium (with 10% fetal calf serum), and transfected with Lipofectamine (Life Technologies Inc.). 0.4 or […] DNA was used per transfection of COS or SW480 cells (in 35 mm culture wells), respectively. Transfected cells were harvested for analysis after 24-48 hours. […]
as §1

nuclear β-catenin = test: TOPFLASH/FOPFLASH luciferase transcriptional read-out of nuclear β-catenin in SW480 cells; format: cell-based; settings: TOPFLASH, versus mock-transfected
Method: pTOPFLASH and pFOPFLASH were used for transcriptional read-out assays of nuclear β-catenin in SW480 cells (Korinek, V. et al. Science 275, 1784-1787 (1997)). pRL-CMV served as an internal control, and luciferase assays were performed with the Dual Luciferase™ Reporter Assay System (Promega). Relative luciferase activities (x100) were obtained by dividing TOP- or FOP-FLASH values by pRL-CMV values (FIG. 3). TOP-FLASH values reflect averages of 2-4 independent transfections, their standard deviations are given.

[4] = HC-transfected SW480 cells, LMB 2 hours

T1 sequence (Q9TVM2 whole entry): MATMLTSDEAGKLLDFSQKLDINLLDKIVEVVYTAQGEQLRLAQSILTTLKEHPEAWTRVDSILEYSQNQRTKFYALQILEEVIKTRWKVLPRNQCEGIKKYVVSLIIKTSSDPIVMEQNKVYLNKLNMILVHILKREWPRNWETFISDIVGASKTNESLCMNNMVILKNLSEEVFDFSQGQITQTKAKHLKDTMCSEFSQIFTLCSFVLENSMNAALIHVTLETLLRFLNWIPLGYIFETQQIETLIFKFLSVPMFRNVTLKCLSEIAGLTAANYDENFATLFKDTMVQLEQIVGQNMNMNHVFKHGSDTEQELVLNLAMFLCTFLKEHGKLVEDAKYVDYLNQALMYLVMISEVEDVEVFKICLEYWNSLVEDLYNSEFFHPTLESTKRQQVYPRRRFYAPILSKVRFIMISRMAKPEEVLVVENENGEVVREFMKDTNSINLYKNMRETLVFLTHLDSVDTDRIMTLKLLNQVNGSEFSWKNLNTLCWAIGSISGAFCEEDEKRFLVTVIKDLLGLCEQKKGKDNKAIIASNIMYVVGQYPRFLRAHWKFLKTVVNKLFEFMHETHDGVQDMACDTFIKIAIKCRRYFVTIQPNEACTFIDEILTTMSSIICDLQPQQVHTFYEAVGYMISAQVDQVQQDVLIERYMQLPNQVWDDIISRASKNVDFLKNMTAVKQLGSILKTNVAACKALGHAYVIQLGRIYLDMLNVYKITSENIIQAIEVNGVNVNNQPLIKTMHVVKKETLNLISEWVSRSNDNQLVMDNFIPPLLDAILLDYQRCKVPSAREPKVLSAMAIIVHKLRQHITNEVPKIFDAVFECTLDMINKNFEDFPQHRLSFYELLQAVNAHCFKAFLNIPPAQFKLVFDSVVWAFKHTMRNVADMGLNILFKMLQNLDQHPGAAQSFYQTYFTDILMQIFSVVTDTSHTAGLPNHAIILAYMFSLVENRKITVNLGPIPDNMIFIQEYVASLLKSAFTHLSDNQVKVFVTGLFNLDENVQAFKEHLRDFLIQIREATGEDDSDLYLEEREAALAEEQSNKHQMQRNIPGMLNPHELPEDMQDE

Molecule	effect on nuclear exclusion / distribution of Cterm1 and Cterm2 ([1]; LMB 50 ng/ml 1-2 hours)	effect on nuclear exclusion of coreNES fusions ([1]; LMB 50 ng/ml 1-2 hours)	effect on subcellular distribution of ARDcore and coreNESala mutants ([1]; LMB 50 ng/ml 1-2 hours)	effect on distribution of full-length E-APC ([1]; LMB treatment (not shown))	effect on localisation of endogenous E-APC [2]	effect on localisation of HC [3, 4]	effect on reduction of nuclear β-catenin by HC [3, 4]	reduction of nuclear β-catenin by transfected construct ([3]; transfected SW480 cells, immunofluorescence)	reduction of luciferase activity (transcriptional activity of nuclear β-catenin) (nuclear β-catenin)
CCC(=C/[C@H](C)C/C=C/C(C)=C/[C@@H](C)C(=O)[C@@H](C)[C@H](O)[C@@H](C)C/C(C)=C/C(=O)O)/C=C/[C@@H]1OC(=O)C=C[C@@H]1C [LMB, leptomycin B]	blocked; also recorded: even distribution of Cterm1 and 2 throughout cytoplasm and nucleus	abolishes the nuclear exclusion of all coreNES fusions	neither affected	accumulated to some extent in the nucleus	E-APC was found to accumulate in the nuclei; also recorded: endogenous E-APC is retained efficiently in nuclei	caused nuclear retention of HC	attenuated the reduction of nuclear β-catenin by HC		
B1								strongly reduced nuclear β-catenin	much reduced

— patent US20020015943A1, “Assays, methods and means relating to the modulation of levels of nuclear beta-catenin” (priority 2000, published 2002)
